Experimental findings from patent US20240216357A1 (SICHUAN HUIYU PHARMACEUTICAL CO., LTD., priority 2021, published 2024) are described below.

The target of one assay is LSD1 (Homo sapiens (Human), UniProt O60341). Nature of the assay: LSD1 enzyme activity detection (HTRF). Format: biochemical. (In general: In TR-FRET formats the signal depends on donor and acceptor labels being close together.)
The next assay deals with NCI-H1417 cells. Nature of the assay: In vitro cell proliferation detection (CellTiter-Glo, 7 days). In kind it is cell-based. The note with it: Homo sapiens, 168 h; NCI-H1417 cells, 7 days, CellTiter-Glo; read-out: NCI-H1417 proliferation inhibition IC50.
Where [1] appears, read: HTRF, H3K4me1 substrate, read-out: Inhibition of enzymatic activity of LSD1 IC50.

Structures are written as SMILES. Structures can show the parent of a compound that is named as a salt. Where two headings read alike, the source gives them in different places. Bounds are passed on as bounds.

Regarding `COc1ccc(-c2c(O)cc(N3CCC(N)CC3)nc2-c2ccc(C#N)c(F)c2)c(F)c1` [Example 36, 4-(6-(4-aminopiperidin-1-yl)-3-(2-fluoro-4-methoxyphenyl)-4-hydroxypyridin-2-yl)-2-fluorobenzonitrile hydrochloride], the IC50 amounted to 35.2 nM at LSD1 (setting [1]) and 21.2 nM in the assay on NCI-H1417 cells.

Turning to `COc1ccc(-c2sc(N3CCC(N)CC3)nc2-c2ccc(C#N)c(F)c2)cc1O` [Example 223, 4-(2-(4-aminopiperidin-1-yl)-5-(3-hydroxy-4-methoxyphenyl)thiazol-4-yl)-2-fluorobenzonitrile], the IC50 came to 0.1 ± 0.03 nM on LSD1 (setting [1]) and 2.39 nM in the assay with NCI-H1417 cells.

Consider `Cc1ccc(-c2cnc(N3CCC(N)CC3)c(C#N)c2-c2ccc(C#N)c(F)c2)cc1O` [Example 67, 2-(4-aminopiperidin-1-yl)-4-(4-cyano-3-fluorophenyl)-5-(3-hydroxy-4-methylphenyl) nicotinonitrile hydrochloride], for which the values for the IC50 on LSD1 (setting [1]) and in the assay on NCI-H1417 cells were 0.2 ± 0.1 nM and 0.2 nM, respectively.

On to `CC(C)(O)Cn1ncc2cc(F)c(-c3sc(C(=O)N4C5CCC4CC(N)C5)cc3-c3ccc(C#N)c(F)c3)cc21` (centres unmarked) [Example 217, 4-(5-(3-amino-8-azabicyclo [3.2.1]octan-8-carbonyl)-2-(5-fluoro-1-(2-hydroxy-2-methylpropyl)-1H-indazol-6-yl)thiophen-3-yl)-2-fluorobenzonitrile hydrochloride], for which the results for the IC50 on LSD1 (setting [1]) and with NCI-H1417 cells were 12.8 nM and 67.8 nM, respectively.

With `CNC1CCN(c2nc(-c3ccc(C#N)c(F)c3)c(-c3ccc(OC)c(O)c3)c3nccn23)CC1` [Example 138, 2-fluoro-4-(8-(3-hydroxy-4-methoxyphenyl)-5-(4-(methylamino)piperidin-1-yl)imidazolo[1,2-c]pyrimidin-7-yl)benzonitrile hydrochloride], the IC50 on LSD1 (setting [1]) was determined as 0.1 ± 0.05 nM; in the assay with NCI-H1417 cells it was 0.305 nM.

For the molecule `Cc1ccc(-c2c(-c3ccc(C#N)cc3)cc3c(N4CCC(N)C4)nccn23)cc1` (centres unmarked) [Example 192, 4-(1-(3-aminopyrrolidin-1-yl)-6-(p-tolyl)pyrrolo [1,2-a]pyrazine-7-yl) benzonitrile hydrochloride], the IC50 at LSD1 (setting [1]) was 10.6 nM; with NCI-H1417 cells it was 81 nM.

In the case of `Cc1ccc(-c2c(-c3ccc(C#N)c(F)c3)nc(N3C4CCC3CC(N)C4)n3ccnc23)cc1O` (centres unmarked) [Example 156, 4-(5-(3-amino-8-azabicyclo[3.2.1]octane-8-yl)-8-(3-hydroxy-4-methylphenyl)imidazolo[1,2-c]pyrimidin-7-yl)-2-fluorobenzo nitrile hydrochloride], the IC50 at LSD1 (setting [1]) was 0.2 ± 0.06 nM; with NCI-H1417 cells it was 0.447 nM.

`COc1ccc(-c2nc(CN[C@@H]3C[C@H]3c3ccc(F)cc3)cc(C(=O)N3CCC(F)(F)CC3)n2)cc1O` [Example 247]: the values for the IC50 on LSD1 (setting [1]) and with NCI-H1417 cells were 65.8 nM and 6.51 nM, respectively.

For `N#Cc1ccc(-c2nc(N3CCC(N)CC3)cc(O)c2-c2ccc(OC(F)(F)F)c(O)c2)cc1F` [Example 29, 4-(6-(4-aminopiperidin-1-yl)-4-hydroxy-3-(3-hydroxy-4-(trifluoromethoxy)phenyl)pyridin-2-yl)-2-fluorobenzonitrile hydrochloride], the IC50 worked out at 3.38 nM on LSD1 (setting [1]) and 11.8 nM with NCI-H1417 cells.

With `COc1ccc(-c2c(-c3ccc(C#N)c(F)c3)nc(N3CC4CC(C3)C4N)n3ccnc23)cc1O` (centres unmarked) [Example 163, 4-(5-(6-amino-3-azabicyclo[3.1.1]heptan-3-yl)-8-(3-hydroxy-4-methoxyphenyl)imidazolo[1,2-c]pyrimidin-7-yl)-2-fluorobenzonitrile hydrochloride], the IC50 worked out at 5.6 ± 1.6 nM on LSD1 (setting [1]) and 9.11 nM with NCI-H1417 cells.

`Cc1ccc(-c2sc(CN3C4CCC3CC(N)C4)cc2-c2ccc(C#N)c(F)c2)c(F)c1` (centres unmarked) [Example 7, 4-(5-((3-amino-8-azabicyclo[3.2.1]octane-8-yl)methyl)-2-(2-fluoro-4-methylphenyl)thiophen-3-yl)-2-fluorobenzonitrile trifluoroacetate]: the IC50 at LSD1 worked out at 0.4 ± 0.29 nM; in the assay with NCI-H1417 cells, 46.4 nM.

As to `CC(C)(O)Cc1ccc(-c2c(O)cc(N3CCC(N)CC3)nc2-c2ccc(C#N)c(F)c2)c(F)c1` [Example 32, 4-(6-(4-aminopiperidin-1-yl)-3-(2-fluoro-4-(2-hydroxy-2-methylpropyl)phenyl)-4-hydroxypyridin-2-yl)-2-fluorobenzonitrile hydrochloride], the IC50 at LSD1 (setting [1]) stood at 48.8 nM; with NCI-H1417 cells, 262 nM.

As for `CS(=O)(=O)N1CCN(c2cc(CN[C@@H]3C[C@H]3c3ccc(F)cc3)nc(-c3ccc(C#N)cc3)n2)CC1` [Example 264, 4-(4-((((1R,2S)-2-(4-fluoro-phenyl)cyclopropyl)amino)methyl)-6-(4-(methylsulfonyl)piperazin-1-yl)pyrimidin-2-yl)benzonitrile], the IC50 on LSD1 (setting [1]) came to 87.6 nM; in the assay on NCI-H1417 cells it was 27.4 nM.

As for `Cc1noc2cc(-c3c(-c4ccc(C#N)c(F)c4)nc(N4CCC(N)CC4)c4c3cnn4C)c(F)cc12` [Example 286, 4-(7-(4-aminopiperidin-1-yl)-4-(5-fluoro-3-methylbenzo[d]isoxazol-6-yl)-1-methyl-1H-pyrazolo [3,4-c]pyridin-5-yl)-2-fluorobenzonitrile], the IC50 is 3.5 nM on LSD1 (setting [1]) and 4.58 nM in the assay with NCI-H1417 cells.

Take `CNC1CCCN(c2nc(OC)c(-c3ccc(OC)c(F)c3)c(-c3ccc(C#N)c(F)c3)n2)C1` (centres unmarked) [Example 114, 2-fluoro-4-(5-(3-fluoro-4-methoxyphenyl)-6-methoxy-2-(3-(methylamino)piperidin-1-yl)pyrimidin-4-yl)benzonitrile hydrochloride]: the IC50 on LSD1 (read-out: Inhibition of enzymatic activity of LSD1 IC50) was 67 nM; in the assay with NCI-H1417 cells, more than 1000 nM.

Turning to `Cc1ccc(-c2c(-c3ccc(C#N)c(F)c3)nc(N3CC4CCC3CC4N)n3ccnc23)cc1O` (centres unmarked) [Example 168, 4-(5-(5-amino-2-azabicyclo [2.2.2]octane-2-yl)-8-(3-hydroxy-4-methylphenyl)imidazolo[1,2-c]pyrimidin-7-yl)-2-fluorobenzo nitrile], the values for the IC50 on LSD1 (setting [1]) and in the assay with NCI-H1417 cells were 0.5 ± 0.1 nM and 1.24 nM, respectively.

Regarding `Cc1ccc(-c2c(-c3ccc(C#N)c(F)c3)nc(N3CC4CC(C3)C4N)n3ccnc23)cc1O` (centres unmarked) [Example 165, 4-(5-(6-amino-3-azabicyclo [3.1.1]heptane-3-yl)-8-(3-hydroxy-4-methylphenyl)imidazolo[1,2-c]pyrimidin-7-yl)-2-fluorobenzonitrile], the IC50 at LSD1 (setting [1]) is 3.4 ± 1.5 nM; in the assay with NCI-H1417 cells it was 4.68 nM.

`N#Cc1ccc(-c2nc(N3C4CCC3CC(N)C4)n3ccnc3c2-c2cc3[nH]ncc3cc2F)cc1F` (centres unmarked) [Example 173, 4-(5-(3-amino-8-azabicyclo[3.2.1]octane-8-yl)-8-(5-fluoro-1H-indazole-6-yl)imidazolo[1,2-c]pyrimidin-7-yl)-2-fluorobenzonitrile hydrochloride]: the figures for the IC50 at LSD1 (setting [1]) and in the assay on NCI-H1417 cells were 0.8 ± 0.2 nM and 8.15 nM, respectively.

With `COc1ccc(-c2c(-c3ccc(C#N)c(F)c3)nc(N3CCC(N)CC3)c3[nH]ncc23)cc1O` [Example 287, 4-(7-(4-aminopiperidin-1-yl)-4-(3-hydroxy-4-methoxyphenyl)-1H-pyrazolo[3,4-c]pyridin-5-yl)-2-fluorobenzonitrile hydrochloride], the IC50 was found to be 0.265 nM on LSD1 (setting [1]) and 5.97 nM in the assay with NCI-H1417 cells.
